Source: patent US10894798B2, “Substituted dihydropyrrolopyrazole derivative” (UBE INDUSTRIES, LTD., priority 2015, dated 2021)

Columns and labels:
[1] = biological target: T1, CDK2 (Homo sapiens, UniProt P24941); assay: CDK2 enzyme inhibition test; assay type: biochemical; conditions: [γ-33P]ATP, MBP substrate; Ki=IC50/(1+S/Km); read-out: Ki value of CDK2 inhibitory activity
T1 construct: purchased Invitrogen Corp. PV3267
Procedure: (§1) The preparation of a buffer solution was performed by mixing a N-2-hydroxyethylpiperazine-N′-2-ethanesulfonic acid buffer solution (HEPES buffer solution) (pH 7.4), dithiothreitol (DTT), Triton X-100, and magnesium chloride (MgCl2). A 500 μM [γ-^33P]ATP solution was used by diluting a 10 mM ATP solution and a commercially available [γ-^33P]ATP solution (manufactured by Perkin Elmer, Inc., Code No. NEG-302H) with the buffer solution. A CDK2 solution was used by diluting commercially available CDK2 (manufactured by Invitrogen Corp., Catalog No. PV3267) with the buffer solution. A substrate solution was used by diluting myelin basic protein (MBP) with the buffer solution. As for the preparation of a reaction solution, the buffer solution, the 500 μM [γ-^33P]ATP solution, the CDK2 solution, and the substrate solution were mixed at 4° C. to obtain a reaction solution.
(§2) CDK2 enzyme reaction was performed by adding 5 μL of a test compound solution prepared with 10% DMSO/90% injectable distilled water, and 45 μL of the reaction solution in a 1.5 mL microtube at 4° C. and reacting in the microtube at 30° C. for 20 minutes in a water bath incubator. After the reaction, a 10% aqueous trichloroacetic acid (TCA) solution was added to each microtube while cooled to 4° C., and mixed in a vortex mixer to terminate the reaction. The resultant was left standing at 4° C. for 10 minutes and then centrifuged, and the supernatant was discarded. Next, a 2% aqueous trichloroacetic acid (TCA) solution was added thereto, mixed in vortex mixer, and then centrifuged, and the supernatant was discarded. This washing operation was performed twice. After the washing, precipitates were dissolved in a 1 N aqueous sodium hydroxide (NaOH) solution, and the energy quantity (radioactivity) of the reaction product was measured with a liquid scintillation counter.
The calculation of the inhibitory activity of the test compound against CDK2 was performed as a test compound concentration inhibiting 50% of the amount of ^33P bound to MBP (IC50 value) by using EXSUS (version 8.1.0, manufactured by CAC Exicare Corp.).
(§3) The calculation of a Ki value was performed according to the following calculation expression wherein S represents the concentration of ATP contained in the reaction solution, and Km represents a Michaelis-Menten constant: Ki=IC50/(1+S/Km)

[2] = biological target: T2, PLK1 (Homo sapiens, UniProt P53350); assay: PLK1 enzyme (polo-like kinase) inhibition test; assay type: biochemical; conditions: [γ-33P]ATP, casein substrate; Ki=IC50/(1+S/Km); read-out: Ki value of PLK1 inhibitory activity
T2 construct: purchased Carna Biosciences, Inc. 05-157
Procedure: The preparation of a buffer solution was performed by mixing a 3-morpholinopropanesulfonic acid buffer solution (MOPS buffer solution) (pH 7.0), dithiothreitol (DTT), and magnesium acetate (Mg(CH3COO)2). A 1 mM [γ-^33P]ATP solution was used by diluting a 10 mM ATP solution and a commercially available [γ-^33P]ATP solution (manufactured by Perkin Elmer, Inc., Code No. NEG-302H) with the buffer solution. A PLK1 solution was used by diluting commercially available PLK1 (manufactured by Carna Biosciences, Inc., Catalog No. 05-157) with the buffer solution. A substrate solution was used by diluting casein with the buffer solution. As for the preparation of a reaction solution, the buffer solution, the 500 μM [γ-^33P]ATP solution, the PLK1 solution, and the substrate solution were mixed at 4° C. to obtain a reaction solution.
as §2, with “PLK1 enzyme reaction” for “CDK2 enzyme reaction”, “mixed in a vortex mixer,” for “mixed in vortex mixer,”
The calculation of the inhibitory activity of the test compound against PLK1 was performed as a test compound concentration inhibiting 50% of the amount of ^33P bound to casein (IC50 value) by using EXSUS (version 8.1.0, manufactured by CAC Exicare Corp.).
as §3

[3] = biological target: T3, CDK7 (Homo sapiens, UniProt P50613); assay: CDK7 enzyme inhibition test; assay type: biochemical; conditions: [γ-33P]ATP, MBP substrate, 60 min preincubation at 25°C; Ki=IC50/(1+S/Km); read-out: Ki value of CDK7 inhibitory activity
T3 construct: purchased Carna Biosciences, Inc. 04-108
Procedure: as §1, with “PerkinElmer,” for “Perkin Elmer,”, “CDK7” for “CDK2”, “Carna Biosciences, Inc.,” for “Invitrogen Corp.,”, “04-108)” for “PV3267)”, “CDK7” for “500 μM [γ-^33P]ATP solution, the CDK2”
CDK7 enzyme reaction was performed by adding 5 μL of a test compound solution prepared with 10% DMSO/90% injectable distilled water, and 40 μL of the reaction solution to a 1.5 mL microtube at 4° C. and preincubating the microtube at 25° C. for 60 minutes in a water bath incubator. Subsequently, reaction was performed at 30° C. for 20 minutes by adding 5 μL of the 500 μM [γ-^33P]ATP solution. After the reaction, a 10% aqueous trichloroacetic acid (TCA) solution was added to each microtube while cooled to 4° C., and mixed in a vortex mixer to terminate the reaction. The resultant was left standing at 4° C. for 10 minutes and then centrifuged, and the supernatant was discarded. Next, a 2% aqueous trichloroacetic acid (TCA) solution was added thereto, mixed in a vortex mixer, and then centrifuged, and the supernatant was discarded. This washing operation was performed twice. After the washing, precipitates were dissolved in a 1 N aqueous sodium hydroxide (NaOH) solution, and the energy quantity (radioactivity) of the reaction product was measured with a liquid scintillation counter.
The calculation of the inhibitory activity of the test compound against CDK7 was performed as a test compound concentration inhibiting 50% of the amount of ^33P bound to MBP (IC50 value) by using EXSUS (version 8.1.0, manufactured by CAC Exicare Corp.).
as §3

[4] = tested on: human large intestine cancer cell line (HCT-116); assay: Human large intestine cancer (HCT-116) cell growth inhibition test; assay type: cell-based; conditions: HCT-116, 72 h, culture for 3 days, sulforhodamine B, read-out: GI50 value, HCT-116 cell growth inhibition
Outline: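 HCT-116 cells were seeded at 0.5 to 2.0×10^3 cells/well in McCoy's 5A with 10% FBS and dosed with compound at 0.1% final DMSO after overnight culture. Growth was measured by sulforhodamine B absorbance after 3 days. GI50 was calculated from the inhibition rate at each concentration.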

T2 sequence (P53350 whole entry): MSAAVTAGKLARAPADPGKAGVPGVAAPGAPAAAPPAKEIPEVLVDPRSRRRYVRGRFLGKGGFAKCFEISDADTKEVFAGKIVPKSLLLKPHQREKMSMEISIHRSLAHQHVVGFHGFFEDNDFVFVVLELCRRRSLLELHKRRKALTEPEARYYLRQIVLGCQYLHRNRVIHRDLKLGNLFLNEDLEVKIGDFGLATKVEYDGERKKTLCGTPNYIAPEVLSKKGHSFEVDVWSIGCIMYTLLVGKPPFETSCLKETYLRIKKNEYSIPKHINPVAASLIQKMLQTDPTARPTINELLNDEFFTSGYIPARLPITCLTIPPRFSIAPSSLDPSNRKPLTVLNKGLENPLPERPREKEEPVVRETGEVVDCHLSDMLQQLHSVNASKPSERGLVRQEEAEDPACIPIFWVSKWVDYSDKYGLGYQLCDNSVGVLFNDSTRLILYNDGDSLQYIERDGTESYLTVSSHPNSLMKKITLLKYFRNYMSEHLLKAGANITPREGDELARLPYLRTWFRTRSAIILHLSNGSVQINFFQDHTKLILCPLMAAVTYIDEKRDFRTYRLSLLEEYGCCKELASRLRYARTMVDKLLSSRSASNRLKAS
T3 sequence (P50613 whole entry): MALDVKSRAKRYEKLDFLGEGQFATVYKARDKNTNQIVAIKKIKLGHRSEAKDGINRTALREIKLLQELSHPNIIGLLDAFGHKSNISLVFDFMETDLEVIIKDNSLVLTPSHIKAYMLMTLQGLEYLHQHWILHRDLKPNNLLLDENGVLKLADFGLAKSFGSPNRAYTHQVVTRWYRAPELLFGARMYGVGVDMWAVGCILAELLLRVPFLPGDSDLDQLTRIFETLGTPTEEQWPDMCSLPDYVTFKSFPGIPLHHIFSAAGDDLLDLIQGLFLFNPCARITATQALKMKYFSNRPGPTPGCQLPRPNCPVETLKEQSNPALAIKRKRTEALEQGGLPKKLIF
T3 sequence (P51946 whole entry partner): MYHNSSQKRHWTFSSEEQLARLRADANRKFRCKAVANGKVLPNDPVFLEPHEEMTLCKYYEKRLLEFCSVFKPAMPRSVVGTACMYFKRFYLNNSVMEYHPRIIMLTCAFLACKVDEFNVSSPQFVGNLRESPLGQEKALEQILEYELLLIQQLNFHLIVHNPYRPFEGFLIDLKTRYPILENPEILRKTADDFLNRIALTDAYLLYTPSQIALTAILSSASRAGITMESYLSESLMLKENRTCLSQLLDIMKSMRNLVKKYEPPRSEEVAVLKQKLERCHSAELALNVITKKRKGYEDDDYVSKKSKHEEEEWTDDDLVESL
T3 sequence (P51948 whole entry partner): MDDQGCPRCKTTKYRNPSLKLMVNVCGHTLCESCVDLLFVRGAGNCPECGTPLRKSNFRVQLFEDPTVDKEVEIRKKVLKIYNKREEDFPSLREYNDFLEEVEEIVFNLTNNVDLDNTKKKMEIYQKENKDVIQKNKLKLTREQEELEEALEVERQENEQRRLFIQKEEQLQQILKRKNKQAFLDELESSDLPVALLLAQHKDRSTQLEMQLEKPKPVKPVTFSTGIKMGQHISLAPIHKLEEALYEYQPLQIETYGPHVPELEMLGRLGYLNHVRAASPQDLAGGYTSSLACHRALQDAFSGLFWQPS

Compound	Ki [1]	Ki [2]	Ki [3]	GI50 [4]
CC1(C)c2[nH]nc(NC(=O)C3([Si](C)(C)C)CCC3)c2CN1C(=O)N1CCOc2ccccc21 [I-1036, N-[5-(3,4-Dihydro-2H-benz[b][1,4]oxazine-4-carbonyl)-6,6-dimethyl-1,4,5,6-tetrahydropyrrolo[3,4-c]pyrazol-3-yl]-1-(trimethylsilyl)cyclobutanecarboxamide]	≥ 1000 nM	≥ 5000 nM		
CCc1cccc(F)c1NC(=O)N1Cc2c(NC(=O)C(C)(C)[Si](C)(C)C)n[nH]c2C1(C)C [II-137, N-(2-Ethyl-6-fluorophenyl)-6,6-dimethyl-3-[2-methyl-2-(trimethylsilyl)propanamido]-4,6-dihydropyrrolo[3,4-c]pyrazole-5(1H)-carboxamide]	≥ 1000 nM	≥ 5000 nM	≤ 50 nM	≤ 100 nM
CC1(C)c2[nH]nc(NC(=O)C(C)(C)[Si](C)(C)C)c2CN1C(=O)Nc1c(F)cccc1OC(F)F [II-169, N-[2-(Difluoromethoxy)-6-fluorophenyl]-6,6-dimethyl-3-[2-methyl-2-(trimethylsilyl)propanamido]-4,6-dihydropyrrolo[3,4-c]pyrazole-5(1H)-carboxamide]	≥ 1000 nM	≥ 5000 nM	≤ 50 nM	≤ 100 nM
CC1(C)c2[nH]nc(NC(=O)C(C)(C)[Si](C)(C)C)c2CN1C(=O)Nc1c(Cl)cccc1Cl [II-199, N-(2,6-Dichlorophenyl)-6,6-dimethyl-3-[2-methyl-2-(trimethylsilyl)propanamido]-4,6-dihydropyrrolo[3,4-c]pyrazole-5(1H)-carboxamide]	≥ 1000 nM	≥ 5000 nM	≤ 50 nM	≤ 100 nM
CC1(C)c2[nH]nc(NC(=O)C(C)(C)[Si](C)(C)C)c2CN1C(=O)Nc1c(F)ccc2ccoc12 [II-1049, N-(6-Fluorobenzofuran-7-yl)-6,6-dimethyl-3-[2-methyl-2-(trimethylsilyl)propanamido]-4,6-dihydropyrrolo[3,4-c]pyrazole-5(1H)-carboxamide]	≥ 1000 nM	≥ 5000 nM	≤ 50 nM	≤ 100 nM
CCc1cccc(F)c1NC(=O)N1Cc2c(NC(=O)C3([Si](C)(C)C)CC3)n[nH]c2C1(C)C [III-137, N-(2-Ethyl-6-fluorophenyl)-6,6-dimethyl-3-[1-(trimethylsilyl)cyclopropanecarboxamido]-4,6-dihydropyrrolo[3,4-c]pyrazole-5 (1H)-carboxamide]	≥ 1000 nM	≥ 5000 nM	≤ 50 nM	≤ 100 nM
CC1(C)c2[nH]nc(NC(=O)C3([Si](C)(C)C)CC3)c2CN1C(=O)Nc1c(F)cccc1OC(F)F [III-169, N-[2-(Difluoromethoxy)-6-fluorophenyl]-6,6-dimethyl-3-[1-(trimethylsilyl)cyclopropanecarboxamido]-4,6-dihydropyrrolo[3,4-c]pyrazole-5(1H)-carboxamide]	≥ 1000 nM	≥ 5000 nM	≤ 50 nM	≤ 100 nM
CC1(C)c2[nH]nc(NC(=O)C3([Si](C)(C)C)CC3)c2CN1C(=O)Nc1c(Cl)cccc1Cl [III-199, N-(2,6-Dichlorophenyl)-6,6-dimethyl-3-[1-(trimethylsilyl)cyclopropanecarboxamido]-4,6-dihydropyrrolo[3,4-c]pyrazole-5(1H)-carboxamide]	≥ 1000 nM	≥ 5000 nM	≤ 50 nM	≤ 100 nM
CC1(C)c2[nH]nc(NC(=O)C3([Si](C)(C)C)CC3)c2CN1C(=O)Nc1c(F)ccc2ccoc12 [III-1049, N-(6-Fluorobenzofuran-7-yl)-6,6-dimethyl-3-[1-(trimethylsilyl)cyclopropanecarboxamido]-4,6-dihydropyrrolo[3,4-c]pyrazole-5 (1H)-carboxamide]	≥ 1000 nM	≥ 5000 nM	≤ 50 nM	≤ 100 nM
CCc1ccccc1NC(=O)N1Cc2c(NC(=O)C3([Si](C)(C)C)CCC3)n[nH]c2C1(C)C [IV-27, N-(2-Ethylphenyl)-6,6-dimethyl-3-[1-(trimethylsilyl)cyclobutanecarboxamido]-4,6-dihydropyrrolo[3,4-c]pyrazole-5(1H)-carboxamide]	≥ 1000 nM	≥ 5000 nM	≤ 50 nM	≤ 100 nM
CC1(C)c2[nH]nc(NC(=O)C3([Si](C)(C)C)CCC3)c2CN1C(=O)Nc1ccccc1C1CC1 [IV-39, N-(2-Cyclopropylphenyl)-6,6-dimethyl-3-[1-(trimethylsilyl)cyclobutanecarboxamido]-4,6-dihydropyrrolo[3,4-c]pyrazole-5(1H)-carboxamide]	≥ 1000 nM	≥ 5000 nM	≤ 50 nM	≤ 100 nM
CC(F)(F)c1ccccc1NC(=O)N1Cc2c(NC(=O)C3([Si](C)(C)C)CCC3)n[nH]c2C1(C)C [IV-45, N-[2-(1,1-Difluoroethyl)phenyl]-6,6-dimethyl-3-[1-(trimethylsilyl)cyclobutanecarboxamido]-4,6-dihydropyrrolo[3,4-c]pyrazole-5(1H)-carboxamide]	≥ 1000 nM	≥ 5000 nM	≤ 50 nM	≤ 100 nM
